Tested on: E. coli ΔemrE mutants
Test: Antimicrobial susceptibility assays of efflux pump deletion mutants
Format: cell-based, Escherichia coli
Settings: ΔemrE mutants in ΔacrAB ΔacrEF background vs parent
Description: The PCR mixtures contained 50 ng of E. coli chromosomal DNA, 40 pmol of each primer, 0.2 mM (each) deoxynucleoside triphosphate, 2 mM MgSO4 and 10% (vol/vol) dimethylsufoxide in 1× thermo reaction buffer (New England Biolabs, Mississauga, Ontario, Canada) and were heated for 5 min at 94° C. before the addition of 2 U of Vent DNA polymerase (New England Biolabs) per reaction. The reaction was then processed for 30 cycles of 40 sec: at 94° C., 40 sec at 56° C. and 40 sec at 72° C. before finishing with 10 min at 72° C. The PCR products to be used in each deletion were purified using a Qiaquick™ PCR purification kit (Qiagen Inc.), digested with BamHI and EcoRI or EcoRI and Sail as appropriate, and cloned into EcoRI-SalI-restricted pBluescript II SK(+) via a three-piece ligation. The resultant vectors, pXZL967 and pXZL983, carried deletions in emrE and emrD respectively, as confirmed by restriction analysis and nucleotide sequencing. Digestion of plasmids pXZL967 and pXZL983, with BamHI and SalI released fragments carrying the PCR-generated deletions of emrE (246 bp in-frame deletion), and emrD (1101 bp in-frame deletion), respectively, which were then cloned into BamHI-SalI-restricted pK03, yielding pXZL975, pXZL987, and pXZL1024 (selected on chloramphenicol (30 μg/ml)-containing LB agar at 30° C.). […]

CC[n+]1c(-c2ccccc2)c2cc(N)ccc2c2ccc(N)cc21 [ethidium bromide]
fold increase in MIC values (more susceptible): 32 fold

— patent US20050255538A1, “Methods for screening for AcrAB efflux pump inhibitors” (priority 2002, published 2005)
